Measured values taken from PubChem BioAssay (NCI).
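The compound was tested at five concentrations on cells cultured in 96-well plates, with a 48-hour exposure period. TGI is the concentration that stops growth completely.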

Experiments:
Assay in all cases: NCI tumour cell line growth inhibition, 48 h
786-0 renal = test system: 786-0 renal
A498 renal = test system: A498 renal
HCT-116 colon = test system: HCT-116 colon
HCT-15 colon = test system: HCT-15 colon
HL-60(TB) leukemia = test system: HL-60(TB) leukemia
HOP-62 NSCLC = test system: HOP-62 NSCLC
IGROV1 ovarian = test system: IGROV1 ovarian
KM12 colon = test system: KM12 colon
MDA-MB-231 breast = test system: MDA-MB-231 breast
NCI-H522 lung = test system: NCI-H522 lung
NCI/ADR-RES ovarian = test system: NCI/ADR-RES ovarian
SF-268 CNS = test system: SF-268 CNS
SK-MEL-2 melanoma = test system: SK-MEL-2 melanoma
SK-MEL-5 melanoma = test system: SK-MEL-5 melanoma
SK-OV-3 ovarian = test system: SK-OV-3 ovarian
SNB-19 CNS = test system: SNB-19 CNS
SR leukemia = test system: SR leukemia
SW-620 colon = test system: SW-620 colon
TK-10 renal = test system: TK-10 renal

Compound	TGI (786-0 renal)	TGI (A498 renal)	TGI (HCT-116 colon)	TGI (HCT-15 colon)	TGI (HL-60(TB) leukemia)	TGI (HOP-62 NSCLC)	TGI (IGROV1 ovarian)	TGI (KM12 colon)	TGI (MDA-MB-231 breast)	TGI (NCI-H522 lung)	TGI (NCI/ADR-RES ovarian)	TGI (SF-268 CNS)	TGI (SK-MEL-2 melanoma)	TGI (SK-MEL-5 melanoma)	TGI (SK-OV-3 ovarian)	TGI (SNB-19 CNS)	TGI (SR leukemia)	TGI (SW-620 colon)	TGI (TK-10 renal)
COCC(N=CN1CCCc2ccccc2[C@@H]1CCCCl)C(C)(C)C (stereo partly drawn)	28.1 µM	33.5 µM	9.48 µM	> 100 µM	8.97 µM	52.9 µM	14.2 µM	20.3 µM	9.48 µM	21.1 µM	3.19 µM	> 100 µM	38.3 µM	9.35 µM	70.1 µM	65.1 µM	12.2 µM	57.6 µM	28.8 µM
CCN(CC)c1cc2c3c(c1)CCCN3CCC2	> 10 µM	> 10 µM	> 10 µM	> 10 µM	> 10 µM	> 10 µM	> 10 µM	> 10 µM	> 10 µM	> 10 µM	> 10 µM	> 10 µM	> 10 µM	> 10 µM	> 10 µM	> 10 µM	> 10 µM	> 10 µM	> 10 µM
CCOC(=O)C1=CN/C(=C(/C)C(=O)OC)SC1C(=O)OCC (stereo not drawn)	> 100 µM	> 100 µM	> 100 µM	> 100 µM	> 100 µM	> 100 µM	> 100 µM	> 100 µM	> 100 µM	> 100 µM	> 100 µM	> 100 µM	> 100 µM	> 100 µM	> 100 µM	> 100 µM	> 100 µM	> 100 µM	> 100 µM
C[C@]12C[C@H](c3ccccc3)Nc3ccccc3N1C(c1ccccc1)=NO2	> 100 µM	> 100 µM	> 100 µM	> 100 µM	> 100 µM	> 100 µM	> 100 µM	> 100 µM	> 100 µM	> 100 µM	> 100 µM	> 100 µM	> 100 µM	> 100 µM	> 100 µM	> 100 µM	26.6 µM	> 100 µM	> 100 µM
CC(=O)C(=[N+]=[N-])C(=O)NCC#N	> 10 µM	> 10 µM	> 10 µM	> 10 µM	> 10 µM	> 10 µM	> 10 µM	> 10 µM	> 10 µM	> 10 µM	> 10 µM	> 10 µM	> 10 µM	> 10 µM	> 10 µM	> 10 µM	> 10 µM	> 10 µM	> 10 µM
COC(=O)c1cc2c(o1)Sc1ccccc1NC2=O	> 100 µM	> 100 µM	> 100 µM	> 100 µM	> 100 µM	> 100 µM	> 100 µM	> 100 µM	> 100 µM	> 100 µM	> 100 µM	> 100 µM	> 100 µM	> 100 µM	> 100 µM	> 100 µM	> 100 µM	> 100 µM	> 100 µM
O=C1CC(NC(=O)C(F)(F)F)c2c1csc2Br (stereo not drawn)	83.1 µM	> 100 µM	> 100 µM	> 100 µM	> 100 µM	> 100 µM	> 100 µM	> 100 µM	> 100 µM	> 100 µM	> 100 µM	62.3 µM	> 100 µM	> 100 µM	> 100 µM	> 100 µM	> 100 µM	> 100 µM	> 100 µM
CC[C@](O)(CC(=O)O[C@H]1C(=O)O[C@@H]2C[C@H]3C(C)=CC(=O)[C@@H](O)[C@]3(C)[C@H]3[C@@]4(O)OC[C@]32[C@@H]1[C@@H](C)[C@H]4O)C(C)C	< 0.01 µM	< 0.01 µM	< 0.01 µM	< 0.0117 µM	< 0.01 µM	< 0.01 µM	< 0.01 µM	< 0.01 µM	< 0.0119 µM	< 0.01 µM	0.242 µM	< 0.01 µM	< 0.01 µM	< 0.01 µM	< 0.01 µM	< 0.01 µM	< 0.01 µM	< 0.01 µM	< 0.01 µM
CN1CCC2(CC1)SC[C@H]1C(=O)N(c3ccc(Cl)cc3)C(=O)N12	> 100 µM	86.3 µM	> 100 µM	> 100 µM	> 100 µM	> 100 µM	> 100 µM	> 100 µM	> 100 µM	> 100 µM	> 100 µM	> 100 µM	> 100 µM	> 100 µM	> 100 µM	> 100 µM	> 100 µM	> 100 µM	> 100 µM
COc1cc(S(=O)(=O)Nc2nc(-c3ccc(N4C(=O)CSC4c4cccs4)cc3)cs2)ccc1Cl (stereo not drawn)	> 100 µM	> 100 µM	> 100 µM	46.7 µM	> 100 µM	> 100 µM	> 100 µM	> 100 µM	> 100 µM	83.2 µM	> 100 µM	> 100 µM	> 100 µM	> 100 µM	> 100 µM	> 100 µM	96.8 µM	> 100 µM	> 100 µM
c1ccc2c(C3CCN(CCN4CCOCC4)C3)c[nH]c2c1 (stereo not drawn)	> 100 µM	> 100 µM	> 100 µM	> 100 µM	> 100 µM	> 100 µM	> 100 µM	> 100 µM	> 100 µM	> 100 µM	> 100 µM	> 100 µM	> 100 µM	> 100 µM	> 100 µM	> 100 µM	> 100 µM	> 100 µM	> 100 µM
COc1cc(S(=O)(=O)Nc2nc(-c3ccc(N4C(=O)C(CC(=O)O)SC4c4ccccc4O)cc3)cs2)ccc1Cl (stereo not drawn)	> 100 µM	> 100 µM	> 100 µM	> 100 µM	57 µM	> 100 µM	> 100 µM	> 100 µM	> 100 µM	> 100 µM	> 100 µM	> 100 µM	> 100 µM	> 100 µM	> 100 µM	> 100 µM	> 100 µM	> 100 µM	> 100 µM
